These results are taken from patent US5258386A (priority 1991, dated 1993).

For data set [1], the system named is maximal electroshock seizures (MES). As to the kind of experiment: Maximal electroshock seizure (MES) assay in rats, s.c. injection, tonic hindlimb extension (THE). The data set is classed as in vivo, Male Sprague-Dawley rats. The settings on record: for % Responding (THE): s.c.; for ED50: sc, read-out: Anticonvulsant ED50. On the procedure:
The anticonvulsant activity of the present compounds was assessed by the method of inducing maximal electroshock seizures (MES) in rats using the standard testing protocol conditions hereinafter described:
Animals. Male Sprague-Dawley rats weighing 200-250 g obtained from Zivic Miller Laboratories, Alison Park, Pa., were used for all experiments. Upon delivery the animals were kept in individual pens housed in a temperature controlled laboratory. A standard 12-hour light-dark cycle was maintained. The animals were given food and water ad libitum.
Maximal electroshock seizure (MES) assay. Supramaximal (tonic hindlimb extension) seizures were induced in test rats by means of an electric shock apparatus. A current of 60 Hz and 50 mA was delivered transauricularly through miniature alligator clips attached to the pinna of each ear for 2.0 seconds. […] In general, MES causes a generalized convulsion characterized by an initial tonic forelimb extension (TFE) progressing immediately to tonic hindlimb extension (THE) followed by clonic jerking. The presence or absence of THE was recorded for each MES convulsion.
Experimental protocol. Two groups of animals with n=10 for each group were tested under the conditions described above. Compounds were administered to each test animal by a single subcutaneous injection. There were no signs of overt sedation, ataxia or motor impairment at any time during the MES assay after drug injection.

The conditions of data set [2]: in vivo, demethylation; dextrorphan is the major metabolite in man; cited from earlier work.
For data set [3] the following is noted: elevated doses; cited from earlier work.
The conditions of data set [4]: U.S. Pat. Nos. 4,898,860 and 4,906,638; cited from earlier work.
For data set [5] the following is noted: in vivo; cited from earlier work.
The conditions of data set [6]: U.S. Pat. No. 4,552,962; cited from earlier work.
The nature of data set [7]: Proconvulsant activity of dextromethorphan. The settings on record: doses above about 60 mg/kg, in mammals.
The conditions of data set [8]: in vivo; cited from earlier work. The source holds these as a separate data set.

Each structure is given as a SMILES string.

With `CN(C)c1ccc2c(c1)C13CCCCC1C(C2)N(C)CC3` (single isomer, unassigned; (+)) [Compound 7, (+)-3,3-Dimethylamino-17-methylmorphinan sesquitartrate], the “% Responding (THE)” value in data set [1] (25 mg/kg, rat MES) was determined as 65%. In addition, in data set [1] (rat MES, single s.c. injection), the ED50 was more than 25 mg/kg.
Take `COc1ccc2c(c1)[C@@]13CCCC[C@H]1[C@@H](C2)N(C)CC3` [Compound 1, (+)-3-methoxy-N-methylmorphinan]: the metabolism to dextrorphan entry in data set [2] is given as “metabolizes rapidly by demethylation in vivo”. Further, the proconvulsant entry in data set [3] was “becomes proconvulsant”. Also, the “% Responding (THE)” value in data set [1] (15 mg/kg, rat MES) amounted to 70%; in data set [1] (30 mg/kg, rat MES), 70%; in data set [1] (60 mg/kg, rat MES), 30%. The inhibits seizures entry in data set [1] (about 60 mg/kg) is recorded as “about 70%”. For the same compound, in data set [1] (rat MES, single s.c. injection), the 50% effective dose (ED50) is 38 mg/kg. Moreover, the “potentiating effect on antiepileptic or antiseizure compounds” value in data set [4] was “potentiating effect”. Further, in data set [5], the anticonvulsant activity result is given as “not very potent as an anticonvulsant agent”. Also, in data set [6], the antitussive activity result was “potent antitussive agent”. For the same compound, the proconvulsant activity entry in data set [7] is “exhibits proconvulsant activity”.
Take `CN1CC[C@]23CCCC[C@H]2[C@H]1Cc1ccc(O)cc13` [Compound 2, (+)-3-hydroxy-N-methylmorphinan]: the “Anticonvulsant ED50” value in data set [1] (rat MES, single s.c. injection) was 5 mg/kg. For the same compound, in data set [5], the anticonvulsant activity entry is given as “some anticonvulsant activity”. Besides, in data set [8], the behavioral side effects result is given as “harmful behavioral side effects”.
Turning to `CN1CC[C@]23CCCC[C@H]2[C@H]1Cc1ccc(N)cc13.Cl.Cl` [Compound 5, (+)-3-Amino-17-methylmorphinan di-HCl], the “% Responding (THE)” value in data set [1] (12.5 mg/kg, rat MES) is on record as 100%; in data set [1] (25 mg/kg, rat MES), 40%. Moreover, the median effective dose (ED50) in data set [1] (rat MES, single s.c. injection) was 25 mg/kg.

The term ED50 denotes the dose that gives a 50% effect, or the effect in half of the subjects.
